Results published in ChEMBL document CHEMBL6109103, “Dodecapeptides derived from human cathelicidin with potent activity against carbapenem-resistant Acinetobacter baumannii” (Eur J Med Chem, 2025).
Calls of active or inactive are those of the source. No cut-off for these calls is given here.

Experiments:
Acinetobacter baumannii [1] = test: Antibacterial activity against multidrug-resistant Acinetobacter baumannii assessed as inhibition of bacterial growth incubated for 24 hrs by broth dilution assay; assay type: functional
Acinetobacter baumannii [2] = test: Antibacterial activity against Acinetobacter baumannii ATCC 19606 assessed as inhibition of bacterial growth incubated for 24 hrs by broth dilution assay; assay type: functional
Staphylococcus aureus [3] = test: Antibacterial activity against Methicillin-resistant Staphylococcus aureus ATCC 43300 assessed as inhibition of bacterial growth incubated for 24 hrs by broth dilution assay; assay type: functional
Staphylococcus aureus [4] = test: Antibacterial activity against Staphylococcus aureus […] assessed as inhibition of bacterial growth incubated for 24 hrs by broth dilution assay; assay type: functional
Acinetobacter baumannii [5] = test: Antibacterial activity against carbapenem-resistant Acinetobacter baumannii clinical isolate 1 assessed as inhibition of bacterial growth incubated for 24 hrs by broth dilution assay; assay type: functional
Acinetobacter baumannii [6] = test: Antibacterial activity against carbapenem-resistant Acinetobacter baumannii clinical isolate 2 assessed as inhibition of bacterial growth incubated for 24 hrs by broth dilution assay; assay type: functional
Acinetobacter baumannii [7] = test: Antibacterial activity against carbapenem-resistant Acinetobacter baumannii clinical isolate 3 assessed as inhibition of bacterial growth incubated for 24 hrs by broth dilution assay; assay type: functional
Acinetobacter baumannii [8] = test: Antibacterial activity against carbapenem-resistant Acinetobacter baumannii clinical isolate 4 assessed as inhibition of bacterial growth incubated for 24 hrs by broth dilution assay; assay type: functional
Acinetobacter baumannii [9] = test: Antibacterial activity against carbapenem-resistant Acinetobacter baumannii clinical isolate 5 assessed as inhibition of bacterial growth incubated for 24 hrs by broth dilution assay; assay type: functional
Acinetobacter baumannii [10] = test: Antibacterial activity against carbapenem-resistant Acinetobacter baumannii clinical isolate 6 assessed as inhibition of bacterial growth incubated for 24 hrs by broth dilution assay; assay type: functional
Acinetobacter baumannii [11] = test: Antibacterial activity against carbapenem-resistant Acinetobacter baumannii clinical isolate 7 assessed as inhibition of bacterial growth incubated for 24 hrs by broth dilution assay; assay type: functional
Acinetobacter baumannii [12] = test: Antibacterial activity against carbapenem-resistant Acinetobacter baumannii clinical isolate 8 assessed as inhibition of bacterial growth incubated for 24 hrs by broth dilution assay; assay type: functional
Acinetobacter baumannii [13] = test: Antibacterial activity against carbapenem-resistant Acinetobacter baumannii clinical isolate 6 assessed as bacterial killing at 3.16 microg/ml measured within 10 mins; assay type: functional, organism-based; conditions: dose 3.16 µg/ml
Acinetobacter baumannii [14] = test: Antibacterial activity against carbapenem-resistant Acinetobacter baumannii clinical isolate 6 assessed as bacterial killing at 3.16 microg/ml measured for 1 hr in presence of NaCl; assay type: functional, organism-based; conditions: dose 3.16 µg/ml
Acinetobacter baumannii [15] = test: Antibacterial activity against carbapenem-resistant Acinetobacter baumannii clinical isolate 6 assessed as bacterial killing at 3.16 microg/ml measured for 10 to 30 mins in presence of mouse serum; assay type: functional, organism-based; conditions: dose 3.16 µg/ml, time 10-30 min
proteinase K = test: Proteolytic stability assessed as proteinase K (unknown origin)-mediated drug degradation measured for 20 mins by LC-MS analysis; assay type: ADME, Homo sapiens; conditions: read-out: Drug degradation
Acinetobacter baumannii [16] = test: Synergistic antibacterial activity against carbapenem-resistant Acinetobacter baumannii clinical isolate 6 in presence of CTX by microdilution checkerboard assay; assay type: functional, organism-based
Acinetobacter baumannii [17] = test: Synergistic antibacterial activity against carbapenem-resistant Acinetobacter baumannii clinical isolate 6 in presence of tetracycline by microdilution checkerboard assay; assay type: functional, organism-based
Pseudomonas aeruginosa = test: Antibacterial activity against human Pseudomonas aeruginosa assessed as inhibition of bacterial growth; assay type: functional, organism-based
Escherichia coli = test: Antibacterial activity against human Escherichia coli assessed as inhibition of bacterial growth; assay type: functional, organism-based
[18] = Binding affinity to gram negative bacterial lipid II assessed as dissociation constant by BLI analysis; parameters: species or system Bacteria
Lipoteichoic acid = test: Binding affinity to […] bacterial Lipoteichoic acid assessed as dissociation constant by BLI analysis; parameters: species or system Bacteria
Cell membrane [19] = test: Induction of outer membrane permeabilization in carbapenem-resistant Acinetobacter baumannii clinical isolate 6 at 6.25 to 12.5 microg/ml measured for 1 hr by NPN-dye based assay; conditions: dose 6.25-12.5 µg/ml
Cell membrane [20] = test: Induction of inner membrane permeabilization in carbapenem-resistant Acinetobacter baumannii clinical isolate 6 at 6.25 microg/ml measured for 1 hr by NPN-dye based assay; conditions: dose 6.25 µg/ml
Acinetobacter baumannii [21] = test: Induction of morphological changes in carbapenem-resistant Acinetobacter baumannii at 6.25 microg/ml measured for 24 hrs by SEM analysis; assay type: functional, organism-based; conditions: dose 6.25 µg/ml
HaCaT = test: Cytotoxicity against human HaCaT cells assessed as cell death up to 100 microg/ml measured upto 24 hrs; assay type: toxicity, cell-based; conditions: dose < 100 µg/ml
[22] = Hemolytic activity at mouse RBC assessed as hemolysis; assay type: toxicity, cell-based, Erythrocyte; conditions: mouse red blood cells, read-out: Activity
[23] = Toxicity in BALB/c mouse assessed as animal survival at 4 to 64 mg/kg, ip measured for 5 days; assay type: organism-based; conditions: in vivo, 120 h, dose 4-64 mg/kg, time 5 day
[24] = Toxicity in BALB/c mouse assessed as heart damage at 64 mg/kg, ip measured for 3 days by H and E staining based analysis; assay type: organism-based; conditions: in vivo, 72 h, time 3 day
[25] = Toxicity in BALB/c mouse assessed as liver damage at 64 mg/kg, ip measured for 3 days by H and E staining based analysis; assay type: organism-based; conditions: in vivo, 72 h, time 3 day
[26] = Toxicity in BALB/c mouse assessed as spleen damage at 64 mg/kg, ip measured for 3 days by H and E staining based analysis; assay type: organism-based; conditions: in vivo, 72 h, time 3 day
[27] = Toxicity in BALB/c mouse assessed as lung damage at 64 mg/kg, ip measured for 3 days by H and E staining based analysis; assay type: organism-based; conditions: in vivo, 72 h, time 3 day
[28] = Toxicity in BALB/c mouse assessed as kidney damage at 64 mg/kg, ip measured for 3 days by H and E staining based analysis; assay type: organism-based; conditions: in vivo, 72 h, time 3 day
Acinetobacter baumannii [29] = test: Antibacterial activity against carbapenem-resistant Acinetobacter baumannii clinical isolate 6 infected in BALB/c mouse assessed as survival rate at 1.25 mg/kg, NAS administered once a day for 3 days; assay type: functional; conditions: 72 h, time 3 day
[30] = Toxicity in BALB/c mouse assessed as animal survival at 1.25 mg/kg, NAS measured for 5 days; assay type: organism-based; conditions: in vivo, inhaled or intranasal, time 5 day

## H-KRIVQRIKIFLR-OH
Acinetobacter baumannii [1]
  MIC: 20 µg/mL
Acinetobacter baumannii [2]
  MIC: 40 µg/mL
Staphylococcus aureus [3]
  MIC: > 320 µg/mL
Staphylococcus aureus [4]
  MIC: 160 µg/mL

## H-KRIVQRIKKFLR-OH
Acinetobacter baumannii [1]
  MIC: 20 µg/mL
Acinetobacter baumannii [2]
  MIC: 80 µg/mL
Staphylococcus aureus [3]
  MIC: > 320 µg/mL
Staphylococcus aureus [4]
  MIC: > 320 µg/mL

## H-KRIVQRIKRFLR-OH
Acinetobacter baumannii [1]
  MIC: 80 µg/mL
Acinetobacter baumannii [2]
  MIC: 160 µg/mL
Staphylococcus aureus [3]
  MIC: > 320 µg/mL
Staphylococcus aureus [4]
  MIC: > 320 µg/mL

## H-KRIVRRIKDFLR-OH
Acinetobacter baumannii [1]
  MIC: 320 µg/mL
Acinetobacter baumannii [2]
  MIC: 320 µg/mL
Staphylococcus aureus [3]
  MIC: > 320 µg/mL
Staphylococcus aureus [4]
  MIC: > 320 µg/mL

## H-KRIVRRIKIFLR-OH
Acinetobacter baumannii [1]
  MIC: 5 µg/mL
Acinetobacter baumannii [2]
  MIC: 10 µg/mL
Staphylococcus aureus [3]
  MIC: 80 µg/mL
Staphylococcus aureus [4]
  MIC: 80 µg/mL
Acinetobacter baumannii [5]
  MIC: 10 µg/mL
Acinetobacter baumannii [6]
  MIC: 20 µg/mL
Acinetobacter baumannii [7]
  MIC: 5 µg/mL
Acinetobacter baumannii [8]
  MIC: 5 µg/mL
Acinetobacter baumannii [9]
  MIC: 10 µg/mL
Acinetobacter baumannii [10]
  MIC: 2.5 µg/mL
Acinetobacter baumannii [11]
  MIC: 10 µg/mL
Acinetobacter baumannii [12]
  MIC: 10 µg/mL
Acinetobacter baumannii [13]
  Activity: Active
Acinetobacter baumannii [14]
  Activity: Active
Acinetobacter baumannii [15]
  Activity: Active
Proteinase K
  metabolised at 20 min: 89.4%
Acinetobacter baumannii [16]
  Activity: Active
Acinetobacter baumannii [17]
  Activity: Active
Pseudomonas aeruginosa
  Activity: Active
Escherichia coli
  Activity: Active
[18]
  Kd: 7.14 nM
Lipoteichoic acid
  Kd: 48.3 nM
Cell membrane [19]
  Activity: Active
Cell membrane [20]
  Activity: Active
Acinetobacter baumannii [21]
  Activity: Active
HaCaT
  Activity: Non-toxic
[22]
  hemolysis: < 1%
[23]
  Activity: Non-toxic
[24]
  Activity: Non-toxic
[25]
  Activity: Non-toxic
[26]
  Activity: Non-toxic
[27]
  Activity: Non-toxic
[28]
  Activity: Non-toxic
Acinetobacter baumannii [29]
  survival at 1.25 mg/kg: 40%
[30]
  survival at 120 h: 30%

## H-KRIVRRIKKFLR-OH
Acinetobacter baumannii [1]
  MIC: 160 µg/mL
Acinetobacter baumannii [2]
  MIC: 80 µg/mL
Staphylococcus aureus [3]
  MIC: > 320 µg/mL
Staphylococcus aureus [4]
  MIC: > 320 µg/mL

## H-KRIVRRIKRFLR-OH
Acinetobacter baumannii [1]
  MIC: 320 µg/mL
Acinetobacter baumannii [2]
  MIC: 320 µg/mL
Staphylococcus aureus [3]
  MIC: > 320 µg/mL
Staphylococcus aureus [4]
  MIC: > 320 µg/mL

## H-LLGDFFRKSKEKIGKEF-OH
Acinetobacter baumannii [1]
  MIC: > 320 µg/mL
Acinetobacter baumannii [2]
  MIC: > 320 µg/mL
Staphylococcus aureus [3]
  MIC: > 320 µg/mL
Staphylococcus aureus [4]
  MIC: > 320 µg/mL

## H-NLVPRTES-OH
Acinetobacter baumannii [1]
  MIC: > 320 µg/mL
Acinetobacter baumannii [2]
  MIC: > 320 µg/mL
Staphylococcus aureus [3]
  MIC: > 320 µg/mL
Staphylococcus aureus [4]
  MIC: > 320 µg/mL
